Consider eight compounds from US20080262011A1, “Modulator” (priority 2004, published 2008).

The target of one series is T1, CB1 receptors (Rattus norvegicus, UniProt P20272).
T1 construct: cerebellar membranes (400 μg wet weight per tube) were thoroughly mixed in a final volume of 0.5 mL; from tissue; host or cells: rat cerebellum (Male Wistar rats), membrane homogenate
T1 sequence (P20272 whole entry): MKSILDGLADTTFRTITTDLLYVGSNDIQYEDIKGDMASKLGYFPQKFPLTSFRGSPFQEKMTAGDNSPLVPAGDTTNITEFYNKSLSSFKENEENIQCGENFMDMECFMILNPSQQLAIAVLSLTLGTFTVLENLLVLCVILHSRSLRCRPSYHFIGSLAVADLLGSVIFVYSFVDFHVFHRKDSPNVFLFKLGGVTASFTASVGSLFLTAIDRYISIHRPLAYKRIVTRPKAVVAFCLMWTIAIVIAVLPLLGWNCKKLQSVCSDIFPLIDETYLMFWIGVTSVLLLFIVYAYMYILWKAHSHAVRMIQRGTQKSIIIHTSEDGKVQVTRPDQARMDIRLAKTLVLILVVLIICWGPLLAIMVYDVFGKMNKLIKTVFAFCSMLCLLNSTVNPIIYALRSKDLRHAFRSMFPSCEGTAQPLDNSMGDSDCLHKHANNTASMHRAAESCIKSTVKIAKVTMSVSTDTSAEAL
As to the kind of experiment: Radioligand binding assay: displacement of [3H]SR141716A from rat cerebellar homogenates.
Conditions: not given
As to the method: SR141716A from rat cerebellar homogenates. […] (M).
Radioligand binding assays provide a simple measure of activity at the CB1 receptors. For functional activity, the vas deferens or cyclic 3′,5′-adenosine monophosphate (cAMP) assays described below are used. The assays are carried out with a protocol modified from the literature using the CB1 receptor antagonist [^3H] SR141716A (0.5 nM) in rat brain membranes. Male Wistar rats (150-200 g), which were allowed free access to food and water, were used. Briefly, animals were killed by cervical dislocation and cerebella dissected into ice-cold 0.25 M sucrose. Homogenates were prepared by suspension of cerebella in ice-cold 50 mM, pH 7.4 HEPES (assay) buffer using an Ultra-Turrax™ homogeniser. Homogenates were subsequently centrifuged at 45,000 rpm for 15 min at 4° C., and re-suspended in fresh ice-cold assay buffer to give a final concentration of 1 mg/mL wet weight. Compounds under test were dissolved in dimethyl sulfoxide (DMSO) and transferred to 14 mL polypropylene test tubes. [^3H] SR141617A {final concentration of approximately 0.5 nM prepared in assay buffer containing 0.1% v/v tris(2-butoxyethyl)phosphate} and cerebellar membranes (400 μg wet weight per tube) were thoroughly mixed in a final volume of 0.5 mL and incubated for 1 h at 37° C. The tubes were transferred to a Brandel filtration apparatus, 5 mL ice-cold assay buffer added, and the tube contents vacuum-aspirated through Whatman GF/C glass fibre filters. A further 5 mL of ice-cold wash buffer was added to tubes and the wash/vacuum cycle repeated a further three times. The filters were transferred to plastic Mini-PolyQ™ vials, Picofluor™ liquid scintillant added, and radioactivity (dpm) was quantified using a Beckman LS6000 Liquid Scintillation Counter. The concentrations of competing ligand (test compounds) to produce 50% displacement of the radioligand (IC50) from specific binding sites were computed using Origin™, by fitting total bound ligand (y-axis as dpm) against compound concentration (x-axis, log 10[x] as M) to the logistic equation y=a+b/[1+exp{−c(x−IC50)}]. Where a=lower asymptote, b=specific bound and c=slope function.
In general terms: Displacement assays read how much labelled ligand stays bound in the presence of the test substance.
Compound `CCCCCCC(C)(C)c1ccc(-c2cccc(O)c2)c(O)c1` [VSN13, 4-(1,1-Dimethylheptyl)-1,1′-biphenyl-2,3′-diol] came in with an IC50 of 1500 nM. The compound `CCCCCCC(C)(C)c1ccc(-c2cc(Cl)cc(Cl)c2)c(O)c1` [VSN28, 3′,5′-Dichloro-4-(1,1-dimethylheptyl)-1,1′-biphenyl-2-ol] came in with an IC50 of 2200 nM. On the same count and under the same terms, then `CCCCCCC(C)(C)c1ccc(-c2cccc(NC(C)=O)c2)c(O)c1` [VSN30, N-[4′-(1,1-dimethylheptyl)-2′-hydroxy-1,1′-biphenyl-3-yl]-acetamide], with 24600 nM; and `CCCCCCC(C)(C)c1ccc(-c2cccnc2)c(O)c1` [VSN26, 5-(1,1-Dimethylheptyl)-2-pyridin-3-yl phenol], with 3600 nM.

In turn, `CCCCCCC(C)(C)c1ccc(-c2ccncc2)c(O)c1` [VSN27, 5-(1,1-Dimethylheptyl)-2-pyridin-4-yl phenol] displayed an IC50 of 1600 nM. `CCCCCCC(C)(C)c1ccc(-c2cccc(CO)c2)c(O)c1` [VSN31, 4-(1,1-Dimethylheptyl)-3′-(hydroxymethyl)-1,1′-biphenyl-2-ol] came in with an IC50 of 1600 nM. Turning to `CCCCCCC(C)(C)c1ccc(-c2cc(C)cc(C)c2)c(O)c1` [VSN29, 3′,5′-Dimethyl-4-(1,1-dimethylheptyl)-1,1′-biphenyl-2-ol], the IC50 is 200 nM.

The series is the same for the next values; noted with them: displacement of [3H]SR141716A (0.5 nM), rat cerebellar membranes; read-out: IC50.
Take `CN(C)C(=O)CCCCC(C)(C)c1ccc(-c2cccc(O)c2)c(O)c1` [VSN32]: the 50% inhibitory concentration (IC50) was determined as 500 nM.

The target of another series is T2, central CB1 receptors (Mus musculus, UniProt P47746).
T2 construct: from tissue; host or cells: whole animal (normal mice), CNS
T2 sequence (P47746 whole entry): as the sequence (P20272 whole entry) above, with E95D counted along it
As to the kind of experiment: Psychotropic activity: adverse cannabimimetic (tetrad) effects in mice. The note with it: in vivo, FIG. 6 legend. As to the method: Many CB1 agonists are known to induce psychotropic associated “tetrad effects” due to central binding to CB receptors [Howlett, A. C. et al, International Union of Pharmacology. XXVII, Pharmacol. Rev. 2002, 54, 161-202]. Studies were undertaken to investigate whether the compounds of the present invention also bound to central CB1 receptors. This is assessed by measuring the ability of the compounds to induce sedation, ptosis, hypomotility, catalepsy and hypothermia in normal mice [Brooks, J. W. et al, Eur. J. Pharmacol. 2002, 439, 83-92], following i.v., i.p. and oral administration.
Turning to `CCCCCCC(C)(C)c1ccc(-c2cccc(O)c2)c(O)c1` [VSN13, 4-(1,1-Dimethylheptyl)-1,1′-biphenyl-2,3′-diol], the adverse cannabimimetic effects entry is given as “does not exhibit adverse cannabimimetic effects”.

As usually defined, the IC50 is the concentration that inhibits the measured activity by half.
